Source: patent US12551492B2, “Enthesis healing” (UNIVERSITY OF UTAH RESEARCH FOUNDATION, priority 2020, dated 2026)
Where two headings read alike, the source gives them in different places.

Tests used:
[1] = Multi-payor national database study: infection after rotator cuff repair; type: in vivo; conditions: patients receiving testosterone replacement vs non-testosterone replacement patients, adjusted
Description: A study within a multi-payor large national database with over 160 million individuals was conducted including 292,666 patients who underwent RCR and an equal number of controls matched for age, sex, year of surgery, and years within the database.
The higher testosterone levels found in males as compared to females increase the presence of Cutibacterium acnes on the skin.

[2] = cited from earlier work
[3] = test system: rotator cuff enthesis; assay: Mouse rotator cuff repair, histological analyses four weeks post-operatively; type: in vivo, male wild type mice
Excerpt: (§1) Twenty-nine male wild type mice were randomly divided into three study groups. Group 1 (Control) consisted of unoperated mice which provided intact “control” shoulders with normal rotator cuff tendons. Group 2 (Repair Only) was a surgical repair group injected with the drug carrier used in Group 3. Group 3 (Repair+DES) was a surgical repair group injected with diethylstilbestrol (DES). Twenty-three mice were sacrificed four weeks post-operatively and used for histological analyses including scanning electron & light microscopy. The six remaining mice (n=3 Repair Only and n=3 Repair+DES) were sacrificed at 2 weeks for RNA expression analysis of various chondrogenic, angiogenic, osteogenic, tendon maturation/modulation, and hormonal genes.

[4] = test system: chondrogenic, angiogenic, osteogenic, tendon maturation/modulation, and hormonal genes; assay: Mouse rotator cuff repair, RNA expression analysis at 2 weeks; type: in vivo, male wild type mice; conditions: Repair+DES vs Repair Only, p<0.02
Excerpt: as §1

[5] = test system: rotator cuff repair; conditions: mouse and rat models; cited from earlier work
[6] = Table 2, available forms of testosterone
[7] = Table 1, available forms of estrogen

With `C[C@]12CC[C@H]3[C@@H](CCC4=CC(=O)CC[C@@]43C)[C@@H]1CC[C@@H]2O` [testosterone] the “increase in risk of having an infection after an RCR” value [1] was 75%.

In the case of `CCC(=O)O[C@H]1CC[C@H]2[C@@H]3CCC4=CC(=O)CC[C@]4(C)[C@H]3CC[C@]12C` [Testosterone propionate], the Half-life [2, 6] is listed as 2 days.

In the case of `C[C@]12CC[C@@H]3c4ccc(OC(=O)c5ccccc5)cc4CC[C@H]3[C@@H]1CC[C@@H]2O` [Estradiol benzoate], the Half-life [2, 7] is listed as 2 to 5 days.

For `C[C@]12CC[C@H]3[C@@H](CCC4=CC(=O)CC[C@@]43C)[C@@H]1CC[C@@H]2OC(=O)CCC1CCCC1` [Testosterone cypionate], the Half-life [2, 6] is listed as 8 days.

For `CCCCCCC(=O)O[C@H]1CC[C@H]2[C@@H]3CCc4cc(O)ccc4[C@H]3CC[C@]12C` [Estradiol enanthate], the Half-life [2, 7] is given as 5 to 8 days.

For `C[C@](O)(COc1ccc(C#N)cc1)C(=O)Nc1ccc(C#N)c(C(F)(F)F)c1` [Enobosarm], the Half-life [2, 6] is listed as 0.0694 days.

In the case of `CC/C(=C(/CC)c1ccc(O)cc1)c1ccc(O)cc1` [DES, diethylstilbestrol], the “areas of calcified and uncalcified fibrocartilage” value ([3]; Repair Only vs Control and Repair+DES, p<0.03) is reported as “significantly greater in the Repair Only group”, the “bone formation within the humeral head” value ([3]; Repair+DES vs Repair Only and Control (intact tendon), p<0.001) is reported as “increase of bone formation” and the “osteogenic, angiogenic, and tendon modulation gene expression” value [4] is reported as “further increased”.

In the case of `CCCCCCC(=O)O[C@H]1CC[C@H]2[C@@H]3CCC4=CC(=O)CC[C@]4(C)[C@H]3CC[C@]12C` [Testosterone enanthate], the Half-life [2, 6] is listed as 4.5 days.

In the case of `CCCCC(=O)O[C@H]1CC[C@H]2[C@@H]3CCc4cc(O)ccc4[C@H]3CC[C@]12C` [Estradiol valerate], the Half-life [2, 7] is given as 4 to 5 days.

For `CCCCCCCCCCC(=O)O[C@H]1CC[C@H]2[C@@H]3CCc4cc(O)ccc4[C@H]3CC[C@]12C` [Estradiol undecylate], the Half-life [2, 7] is given as 1-2 mon.

For `CC/C(=C(\c1ccccc1)c1ccc(OCCN(C)C)cc1)c1ccccc1` [Tamoxifen (SERM), Tamoxifen], the Half-life [2, 7] is given as 5 to 7 days.

In the case of `CCCCCCCCCCC(=O)O[C@H]1CC[C@H]2[C@@H]3CCC4=CC(=O)CC[C@]4(C)[C@H]3CC[C@]12C` [Testosterone undecanoate (PO), Testosterone undecanoate], the Half-life [2, 6] is listed as 0.0694 days and the Half-life ([2]; Table 2, available forms of testosterone, listed as Testosterone undecanoate (IM)) is listed as 34 days.

For `CCC(=O)Oc1ccc2c(c1)CC[C@@H]1[C@@H]2CC[C@]2(C)[C@@H](OC(=O)CC)CC[C@@H]12` [Estradiol dipropionate], the Half-life [2, 7] is listed as >5 days.

For FGF-2: fibroblast growth factor 2, the “histologic or biomechanical characteristics after rotator cuff repair” value [5] is listed as “positively influence histologic or biomechanical characteristics”.

In the case of `CCN(CC)CCOc1ccc(C(=C(Cl)c2ccccc2)c2ccccc2)cc1` [Clomiphene (SERM), Clomiphene], the Half-life [2, 7] is given as 5 days.

For “TGF-beta1: transforming growth factor beta1”, the “histologic or biomechanical characteristics after rotator cuff repair” value [5] is listed as “positively influence histologic or biomechanical characteristics”.

In the case of `C[C@]12CC[C@@H]3c4ccc(O)cc4CC[C@H]3[C@@H]1CC[C@@H]2OC(=O)CCC1CCCC1` [Estradiol cypionate], the Half-life [2, 7] is listed as 8 to 10 days.

For `N#Cc1ccc(N2CCC[C@@H]2[C@@H](O)C(F)(F)F)cc1C(F)(F)F` [Ligandrol], the Half-life [2, 6] is given as 1 to 1.5 days.

B1: PDGF-BB: platelet derived growth factor-BB (protein, UniProt P01127 82-190, looked up)
Platelet-derived growth …: SLGSLTIAEPAMIAECKTRTEVFEISRRLIDRTNANFLVWPPCVEVQRCSGCCNNRNVQCRPTQVQLRPVQVRKIEIVRKKPIFKKATVTLEDHLACKCETVAAARPVT
For B1, the “histologic or biomechanical characteristics after rotator cuff repair” value [5] is listed as “positively influence histologic or biomechanical characteristics”.
